Here are results for 2 molecules from ChEMBL document CHEMBL1157538, “Discovery of a potent, selective, and orally bioavailable c-Met inhibitor: 1-(2-hydroxy-2-methylpropyl)-N-(5-(7-methoxyquinolin-4-yloxy)pyridin-2-yl)-5-methyl-3-oxo-2-phenyl-2,3-dihydro-1H-pyrazole-4-carboxamide (AMG 458)” (J Med Chem, 2008).

In series [1] the target is T1, Hepatocyte growth factor receptor (Homo sapiens, UniProt P08581). Description: Inhibition of HGF-mediated c-Met phosphorylation in human PC3 cells. The series is classed as cell-based, PC-3.
Series [2] has as its target T1, Hepatocyte growth factor receptor. Description: Inhibition of c-Met phosphorylation by HTRF assay. Background: Time-resolved FRET reads energy transfer from a long-lived donor to a nearby acceptor.
Series [3] can be described thus: Intrinsic clearance in human liver microsome. The series is classed as ADME. The following applies: liver microsomes.
Series [4] can be described thus: Intrinsic clearance in Sprague-Dawley rat liver microsome. Conditions: liver microsomes. The series is classed as ADME. (Liver microsomes are a subcellular fraction often used to study metabolism.)
Series [5] can be described thus: Half life in rat. The format is ADME, organism-based. Conditions: in vivo.
Series [6] is described as follows: Clearance in rat. The format is ADME, organism-based. Conditions: in vivo.
A short description of series [7]: Oral bioavailability in rat. The series is classed as ADME, organism-based. The following applies: in vivo.
Series [8] in a line: Intrinsic clearance in BALB/c mouse liver microsome. The format is ADME. The following applies: liver microsomes.

pIC50, pKi: −log10 of the molar value.

For the molecule `COc1ccc2c(Oc3ccc(NC(=O)c4c(C)n(CC(C)(C)O)n(-c5ccccc5)c4=O)cc3F)ccnc2c1`, the negative logarithm of the IC50 (pIC50) in series [1] is 7.30. Also, the pKi in series [2] is 8.57.
`COc1ccc2c(Oc3ccc(NC(=O)c4c(C)n(C[C@H](C)O)n(-c5ccccc5)c4=O)cc3F)ccnc2c1`: the intrinsic metabolic clearance (microsomal CLint) in series [3] is below 55 µL/min/mg; in series [4] it was below 60 µL/min/mg; in series [8] it was below 45 µL/min/mg. The molecule further had a half-life in series [5] of 1.9 h. The clearance in series [6] was below 3.33 mL/min/kg. Further, the bioavailability in series [7] was above 50%.

What is called pIC50 is the IC50 on a negative log10 scale, so that one unit is a factor of ten. As usually defined, the pKi is the negative decadic logarithm of the Ki, by convention in mol/L. A high value points to a small Ki. As a reminder, the microsomal CLint is the capacity of the preparation to metabolise the compound, expressed as a volume cleared per time. A lower microsomal CLint goes with slow turnover. By half-life is commonly meant the time in which the quantity being followed falls by half. Low readings indicate fast loss, high ones slow loss. A word on the clearance: it is a measure of how efficiently the substance is removed, as volume per time. Low values mean a low capacity for elimination, high ones a high capacity for elimination. One may read the bioavailability as the share of a dose that reaches the circulation, judged against a reference dose that is usually intravenous.
